Test system: gastro-intestinal side-effects caused by non-steroidal antiphlogistics
Assay: Clinical tests of suppression of gastro-intestinal side-effects by pirenzepine
Type: in vivo

CN1CCN(CC(=O)N2c3ccccc3C(=O)Nc3cccnc32)CC1 [pirenzepine, 5,11-dihydro-11-[(4-methyl-1-piperazinyl)-acetyl]-6H-pyrido[2,3-b] [1,4] benzodiazepin-6-one]
incompatibilities between pirenzepine and non-steroidal antiphlogistics (combined administration): not observed any incompatibilities
mucous membrane protection by single therapeutic doses at 12-hour intervals (single therapeutic doses at 12-hour intervals): sufficient to assure round-the-clock mucous membrane protection

— patent US4292319A, “Antiphlogistic pharmaceutical compositions and method of use” (Boehringer Ingelheim GmbH, priority 1977, dated 1981)
